Patent publication US20120295982A1, “TREATING HUMAN MALE COPD PATIENTS WITH ORAL BEDORADRINE” (MediciNova, Inc., priority 2011, published 2012)
Counter-ions that a name gives are not always drawn.

System: patients with acute exacerbations of asthma (AEA)
Assay: Placebo-controlled dose-escalating test of i.v. MN-221 plus standard of care in acute exacerbations of asthma (emergency department)
Assay type: in vivo, human
Procedure: This example provides certain preferred oral dosages for treating male COPD patients according to this invention. Initially, the efficacy and safety of administering intravenous MN-221 in combination with standard of care (SOC) for treating acute exacerbations of asthma (AEA) in an emergency department (ED) setting is determined. The testing was performed in a randomized, placebo-controlled, dose-escalating, setting. Twenty nine patients received SOC (nebulized albuterol and ipratropium plus oral corticosteroid). Patients with FEV1≦55% of predicted were randomized to MN-221 (240 or 450 μg infused over 15 min or 1080 μg over 2 hr) or Placebo. MN-221 was administered as follows: 16 μg/min for 15 min (total dose of 240 μg); 30 μg/min for 15 min (total dose of 450 μg); 16 μg/min for 15 min+8 μg/min for 105 min (total dose of 1,080 μg); and 2 patients received total dose of 1,995 μg. Safety, efficacy and PK parameters were monitored hourly throughout a 5 hr treatment period and a 24 hr follow-up visit. Nebulized albuterol (2.5 mg) and/or ipratropium (0.5 mg) was available hourly during screening and treatment phases. Efficacy endpoints included spirometry, dyspnea indexing, albuterol use, and hospitalization rates. The testing was completed with 13 patients (n=13) in SOC+Placebo and 16 patients (n=16) receiving SOC+MN-221; 5 at 240 μg, 6 at 450 μg, and 5 intended for a 1080 μg dose. Patients received Standard of Care (SOC) treatment in addition to adjunctive treatment with MN-221 or placebo. MN-221 was well-tolerated.

CN(C)C(=O)COc1ccc2c(c1)C[C@@H](NC[C@H](O)c1ccc(O)c(CCO)c1)CC2 [MN-221, bedoradrine sulfate]
heart rate relative to Placebo (all MN-221 group): minimally elevated | hospitalization rate (all MN-221 group (4/16), i.v. plus SOC): 25% | FEV1 (% predicted), change from baseline in AUC1-5 hr, higher vs. Placebo (all MN-221 group vs. Placebo): 43% | tolerability (i.v. MN-221 240-1080 μg plus standard of care, AEA patients): well-tolerated | electrocardiograph (ECG) findings (i.v. MN-221 plus SOC): No abnormal electrocardiograph (ECG) findings were observed | intensity of the majority of adverse events (i.v. MN-221 plus SOC): mild to moderate in intensity
